Laboratory results taken from PMC8370991, “Structural basis for the inhibition of HTLV-1 integration inferred from cryo-EM deltaretroviral intasome structures” (Nature Communications, 2021).
Where two headings read alike, the source gives them in different places.

What was measured:
recombinant HTLV-1 IN = target: T1, recombinant HTLV-1 IN (Human T-cell leukemia virus 1, UniProt P03362); conditions: previously obtained values, read-out: HTLV-1 IN strand transfer IC50, cited from earlier work
T1 construct: made in house

HTLV-1 [1] = conditions: cited from earlier work
STLV-1 intasome = experiment: EMSA of stability (retention) of assembled STLV-1 intasome; conditions: three hours of incubation with the drug
Description: The donor DNA (vDNA) that mimics the 3′-processed LTR of STLV-1 DNA was preassembled by annealing Atto-680-labelled MarB43_U5_S30UP and MarB43_U5_S30B oligonucleotides (Supplementary Table 4) in 100 mM Tris pH 7.4, 400 mM NaCl. In all, 16 μg of STLV-1 IN or its mutants were co-incubated with 38.4 μg of LEDGF/ΔIBD-B56γ at 4 °C for 30 min to allow binding. Samples were then supplemented with 0.5 μL 20 μM Atto680-labelled vDNA, and sufficiently diluted to give a final NaCl concentration of 60 mM. This was immediately placed in a 37 °C heating block for 10 min. The sample was then returned to room temperature (RT) and any precipitate was resolubilised by the addition of NaCl to a final concentration of 1.2 M. After equilibration of the samples at RT for 10 min, the samples were either immediately supplemented with 10 μg/mL heparin or, where stated, were incubated further or additional reagents/INSTIs were added, as described. Samples, supplemented with 10 μg/mL heparin, devoid of loading dye were carefully loaded onto a 3% low melting point agarose gel containing 10 μg/mL heparin and electrophoresed, avoiding overheating. Densitometry analysis was carried out in ImageJ v1.50i. Measurements from at least three independent experiments were taken. Standard deviations and p values were calculated in Prism 9.
Supplementary Figure 10 | STLV-1 IN A219E binds more B56g and stabilises the deltaretroviral intasome. a, Pulldown of LEDGF/ΔIBD-B56γ by wild type His6-STLV-1 IN and its mutants. Mutations introduced in the IN:B56 binding interface can strengthen the interaction. b, A219E-mutated STLV-1 IN increases the amount of intasome assembled in vitro in an EMSA assay, compared to wild type IN. Values are normalised to wild type STLV-1 IN. c, EMSA study of the effect of addition of BIC on the stability (retention) of the assembled STLV-1 intasome after three hours of incubation with the drug. Values shown represent percentage of intasome retained as compared to intasome assayed by EMSA straight after assembly. Averages and standard deviations are shown for two independent biological replicates. Primary data from pull-down assays and EMSA is also included below each panel. The red arrow indicates the intasome band. INSTI, integrase strand transfer inhibitor. Source data are provided as a Source Data File.
(1 picture or pasted object on this page, not shown here)

HTLV-1 [2] = experiment: MT-2-Jurkat cell-to-cell HTLV-1 infection, proviral load by qPCR; assay type: cell-based; conditions: HTLV-1 infection of Jurkat T cells
Description: Six of the most promising compounds were selected for assessment of their efficacy in inhibiting HTLV-1 viral infection. To this end, we employed an MT-2-Jurkat co-culture relying on cell-to-cell-based HTLV-1 transmission, which we successfully used in a previous study. In this assay format, the infection of Jurkat cells is measured via real-time quantitative PCR (qPCR) determination of the proviral load (PVL). […] A block in the integration reaction was confirmed by Alu-qPCR experiments (Supplementary Fig. 6). […] We suspect this is owing to a more efficient uptake of BIC than RAL by Jurkat T cells.
MT-2 and E6.1 Jurkat T-cell lines (ATCC) were used for the experiments. The cells were cultured at 37 °C with 5% CO2 and maintained in Roswell Park Memorial Institute (RPMI) media supplemented with 10% fetal bovine serum (FBS), 100 U penicillin, 100 μg/mL streptomycin and 0.25 μg/mL fungizone.
The HTLV-1 cell-to-cell infection was performed as previously described; Jurkat T cells were counted and diluted in complete RPMI to a final concentration of 0.25 × 10^6 cells/ml and pre-treated with INSTI drugs (final concentration ranging from 0.2 pM to 2 μM) or DMSO as a control for 24 h. MT-2 cells were resuspended in RPMI at a concentration of 2 × 10^6 cells/ml and subjected to a nonlethal γ-radiation dose of 400 Gy. Cells were resuspended at a concentration of 2 × 10^6 cells/ml in serum-free RPMI supplemented with the corresponding INSTI drug. Co-culture of 0.5 × 10^6 for each cell line was carried out for 16 h, after which cells were washed in PBS and resuspended in 1 ml of depletion buffer (PBS, 0.1% FBS and 2 mM EGTA). MT-2 cells were depleted from the culture by means of anti-CD25 magnetic beads (DynabeadsTM CD25, Thermo Fisher). Depletion efficiency was confirmed via flow cytometry as described previously. Jurkat cells were cultured for 2 weeks in complete RPMI supplemented with the drugs and genomic DNA was extracted (DNeasy kit, Qiagen) and stored at −20 °C for subsequent analysis. All the experiments were done in triplicate.
The PVL was measured as previously described[9],[53],[54]. Jurkat genomic DNA was quantified and diluted to a concentration of 5 ng/μL. Real-time qPCR analysis were conducted on 20 ng of gDNA to measure the level of HTLV-1 tax and gapdh genes (Supplementary Table 5). For the standard curve, the gDNA from an HTLV-1 naturally infected T-cell clone (clone 11.50, courtesy of professor Charles Bangham), which has one copy of tax and two of gapdh, was used. The integrated provirus copy number was calculated as follows: (tax copy numbers)/(2×gapdh copy number)[53], and normalised to the DMSO-treated control which was set to 100%. The PVL data were fitted to a dose–response curve in Prism 7 and the EC50 was calculated. Alu-PCR was performed as previously described in ref. [55]. In brief, the first PCR reaction was done with Phusion polymerase starting from 80 ng of gDNA using the ALU-specific primers (Alu-F/Gag-R). The nested PCR was run diluting the amplificated product 1:50. The reaction was done as a qPCR using Gag-specific primers (Gag-R/Gag-F) and the Luna SYBR dye reaction mix (New England Biolabs). The integrated provirus copy numbers were normalised to GAPDH and Jurkat cells treated with DMSO and infected with HTLV-1 were set to 100%. Experiments were done in triplicate.

HIV-1 = HIV-1 infection model; supplementary ref 18; read-out: HIV-1 EC50 ± stdev; cited from earlier work
[3] = target: 6xHis-tagged STLV-1 MarB43 integrase A219E (simian T-cell lymphotropic virus type 1 (STLV-1), isolate MarB43); experiment: pull-down
[4] = target: STLV-1 IN(A219E) as assembled into the intasome for cryo-EM (simian T-cell lymphotropic virus type 1 (STLV-1), isolate MarB43); experiment: cryo-EM structure

Compound: O=C(NCc1c(F)cc(F)cc1F)c1cn2c(c(O)c1=O)C(=O)N1[C@H]3CC[C@H](C3)O[C@@H]1C2 [Bictegravir]
- IC50 (recombinant HTLV-1 IN; Replicate 1): 163 nM
- IC50 (recombinant HTLV-1 IN; Replicate 2): 136 nM
- IC50 (recombinant HTLV-1 IN; Replicate 3): 212 nM
- EC50 (HTLV-1 [1]; MT-2-Jurkat cell-to-cell infection, read-out: HTLV-1 EC50): 0.3 ± 0.173 nM
- EC50 (HTLV-1 [1]; Replicate 1, previously reported values, read-out: HTLV-1 infection EC50): 0.54 nM
- EC50 (HTLV-1 [1]; Replicate 2, previously reported values, read-out: HTLV-1 infection EC50): 0.44 nM
- percentage of intasome retained (STLV-1 intasome; 1 uM, Replicate 1): 54.7791%
- percentage of intasome retained (STLV-1 intasome; 1 uM, Replicate 2): 56.5068%
- percentage of intasome retained (STLV-1 intasome; 50 uM, Replicate 1): 73.5691%
- percentage of intasome retained (STLV-1 intasome; 50 uM, Replicate 2): 117.429%
- percentage of intasome retained (STLV-1 intasome; 50 uM, Replicate 3): 83.837%
- improvement in EC50 compared with RAL (HTLV-1 [2]): 20 fold
- EC50 (HIV-1): 1.6 ± 0.4 nM

Compound: LEDGF/ΔIBD-B56γ (from UniProt Q13362 11-380)
- fold B56γ recovered against WT IN [3]: 2 fold

Compound: STLV-1 IN(A219E) as assembled into the intasome for cryo-EM (enzyme)
- stoichiometry N [4]: 4
